The term IC50 denotes the midpoint of a concentration-inhibition curve.

Experimental findings from ChEMBL document CHEMBL3576813, “Cucurbitacin D Is a Disruptor of the HSP90 Chaperone Machinery” (J Nat Prod, 2015) are described below.

The subject of assay [1] is MCF7. Briefly: Cytotoxicity against human MCF7 cells assessed as growth inhibition after 72 hrs by MTS/PMS assay. The format is functional, cell-based. The note with it: MCF7, 72 h.
In assay [2] the target is T1, Heat shock protein HSP90 (Homo sapiens) (UniProt P07900+P08238). Kind of assay: Inhibition of HSP90 in human MCF7 cells assessed as pAkt degradation after 24 hrs by Western blot analysis. The format is cell-based. (A western blot detects proteins with antibodies after separation by electrophoresis.)
Assay [3] addresses T1, Heat shock protein HSP90 (Homo sapiens). Kind of assay: Inhibition of HSP90 in human MCF7 cells assessed as Her2 degradation after 24 hrs by Western blot analysis. The format is cell-based.
Assay [4] has the same target. Kind of assay: Inhibition of HSP90 in human MCF7 cells assessed as Cdk6 degradation after 24 hrs by Western blot analysis. The format is cell-based.
Assay [5] has the same target. Kind of assay: Inhibition of HSP90 in human MCF7 cells assessed as Raf degradation after 24 hrs by Western blot analysis. The format is cell-based.
Assay [6] concerns MCF7. Kind of assay: Change in Cdc37 expression in human MCF7 cells at 0.01 to 10 uM after 24 hrs by Western blot analysis. The format is functional, cell-based.
The test system of assay [7] is MCF7. Kind of assay: Change in p23 expression in human MCF7 cells at 0.01 to 10 uM after 24 hrs by Western blot analysis. The format is functional, cell-based.
The target in assay [8] is T1, Heat shock protein HSP90 (Homo sapiens). Kind of assay: Inhibition of HSP90 in human MCF7 cells assessed as disruption of interaction with Cdc37 at 0.5 times to 5 times IC50 after 24 hrs by co-immunoprecipitation assay. The format is cell-based.
The target is the same in assay [9]. Briefly: Inhibition of HSP90 in human MCF7 cells assessed as disruption of interaction with p23 at 0.5 times to 5 times IC50 after 24 hrs by co-immunoprecipitation assay. The class given is cell-based.
The target is the same in assay [10]. Kind of assay: Inhibition of HSP90 in human MCF7 cells assessed as induction of heat shock response-mediated HSP27 production at 5 times to 10 times IC50 after 24 hrs by Western blot analysis relative to vehicle-treated control. The class given is cell-based.
Assay [11] has the same target. Kind of assay: Inhibition of HSP90 in human MCF7 cells assessed as pAkt degradation at 0.5 times to 5 times IC50 after 24 hrs by Western blot analysis. The format is cell-based.
The target is the same in assay [12]. Kind of assay: Inhibition of HSP90 in human MCF7 cells assessed as Her2 degradation at 0.5 times to 5 times IC50 after 24 hrs by Western blot analysis. The format is cell-based.
For assay [13] the target is unchanged. Briefly: Inhibition of HSP90 in human MCF7 cells assessed as Cdk6 degradation at 0.5 times to 5 times IC50 after 24 hrs by Western blot analysis. The class given is cell-based.
Assay [14] shares this target. Briefly: Inhibition of HSP90 in human MCF7 cells assessed as Raf degradation at 0.5 times to 5 times IC50 after 24 hrs by Western blot analysis. The class given is cell-based.
The target is the same in assay [15]. Kind of assay: Inhibition of HSP90 in human MCF7 cells assessed as induction of heat shock response-mediated HSP90 production at 0.5 times to 5 times IC50 after 24 hrs by Western blot analysis. The format is cell-based.
Assay [16] has the same target. Briefly: Inhibition of HSP90 in human MCF7 cells assessed as induction of heat shock response-mediated HSP70 production at 0.5 times to 5 times IC50 after 24 hrs by Western blot analysis. The format is cell-based.
The target is the same in assay [17]. Kind of assay: Inhibition of HSP90 in human MCF7 cells assessed as induction of heat shock response-mediated HSP27 production at 0.5 times to 5 times IC50 after 24 hrs by Western blot analysis. The format is cell-based.
Assay [18] relates to MCF7. Briefly: Change in Cdc37 expression in human MCF7 cells at 5 times IC50 after 24 hrs by Western blot analysis. The format is functional, cell-based.
Assay [19] concerns MCF7. Briefly: Change in p23 expression in human MCF7 cells at 5 times IC50 after 24 hrs by Western blot analysis. The format is functional, cell-based.
The target in assay [20] is T2, Prostaglandin E synthase 3 (Homo sapiens) (UniProt Q15185).
T2 sequence (whole entry): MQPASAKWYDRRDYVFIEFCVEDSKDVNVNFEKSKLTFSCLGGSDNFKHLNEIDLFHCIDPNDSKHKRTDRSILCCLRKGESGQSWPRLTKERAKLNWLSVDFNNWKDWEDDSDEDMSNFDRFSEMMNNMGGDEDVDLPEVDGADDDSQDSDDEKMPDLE
Briefly: Binding affinity to p23 in human MCF7 cells assessed as inhibition of interaction with HSP90 at 5 times IC50 after 24 hrs by co-immunoprecipitation assay. The format is cell-based.

The source made the active and inactive calls. No cut-off for these calls is given here.

For `CC(C)(O)/C=C/C(=O)[C@](C)(O)[C@H]1[C@H](O)C[C@@]2(C)[C@@H]3CC=C4[C@@H](CC(=O)[C@H](O)C4(C)C)[C@]3(C)C(=O)C[C@]12C`, the IC50 in the assay on MCF7 [1] (read-out: IC50) came to 718 nM. The inhibition result in assay [2], in assay [3], in assay [4] and in [5] was “Dose-dependent effect” each time. In addition, the outcome in the assay with MCF7 [6] and in the assay with MCF7 [7] was inactive. The inhibition result in assay [8] and in assay [9] was “inactive” throughout. The inhibition entry in assay [10] was “Active”.
Regarding `CC(C)(O)CCC(=O)[C@@](C)(O)[C@H]1[C@H](O)C[C@@]2(C)[C@@H]3CC=C4[C@@H](C[C@H](O)C(=O)C4(C)C)[C@]3(C)C(=O)C[C@]12C`, in the assay with MCF7 [1] (read-out: IC50), the IC50 was 5130 nM. Also, the inhibition result in [11], in assay [12], in assay [13], in assay [14], in assay [15] and in assay [16] was “inactive” throughout. Also, the inhibition result in assay [17] was “inactive”.
`CC(=O)OC(C)(C)CCC(=O)[C@](C)(O)[C@H]1[C@H](O)C[C@@]2(C)[C@@H]3CC=C4[C@@H](C[C@H](O)C(=O)C4(C)C)[C@]3(C)C(=O)C[C@]12C` [23,24-DIHYDROCUCURBITACIN B]: the IC50 in the assay on MCF7 [1] (read-out: IC50) was found to be 46300 nM. In addition, the inhibition entry in [11], in [12], in assay [13], in [14], in assay [15] and in [16] was “inactive” throughout. For the same compound, the inhibition entry in [17] is “inactive”.
On to `CC1=C(O)C(=O)C=C2C1=CC=C1[C@@]2(C)CC[C@@]2(C)[C@@H]3C[C@](C)(C(=O)O)CC[C@]3(C)CC[C@]12C` [CELASTROL], for which the IC50 in the assay with MCF7 [1] (read-out: IC50) was 153 nM. Besides, the result with MCF7 [18] and in the assay on MCF7 [19] was Active.
As for `CC(=O)OC(C)(C)/C=C/C(=O)[C@](C)(O)[C@H]1[C@H](O)C[C@@]2(C)[C@@H]3CC=C4[C@H](C[C@H](O)C(=O)C4(C)C)[C@]3(C)C(=O)C[C@]12C` [CUCURBITACIN B], in the assay with MCF7 [1] (read-out: IC50), the IC50 was 41.3 nM. In addition, the inhibition entry in assay [11], in assay [12], in assay [13], in assay [14], in assay [15] and in assay [16] was “inactive” each time. In assay [17], the inhibition entry is “inactive”.
Turning to `CC(C)(O)/C=C/C(=O)[C@](C)(O)[C@H]1[C@H](O)C[C@@]2(C)[C@@H]3CC=C4[C@@H](C[C@H](O)C(=O)C4(C)C)[C@]3(C)C(=O)C[C@]12C` [CUCURBITACIN D], the IC50 in the assay with MCF7 [1] (read-out: IC50) amounted to 598 nM. The inhibition result in assay [2], in assay [3], in [4] and in [5] was “Dose-dependent effect” throughout. Further, the result in the assay on MCF7 [6] and in the assay with MCF7 [7] was inactive. Further, the inhibition result in assay [10] was “inactive”.
Regarding `CC(=O)OC(C)(C)/C=C/C(=O)[C@](C)(O)[C@H]1[C@H](O)C[C@@]2(C)[C@@H]3CC=C4[C@@H](C=C(O)C(=O)C4(C)C)[C@]3(C)C(=O)C[C@]12C` [CUCURBITACIN E], the IC50 with MCF7 [1] worked out at 55 nM. Further, the inhibition entry in assay [11], in assay [12], in assay [13], in assay [14], in assay [15] and in [16] was “inactive” each time. In assay [17], the inhibition result is “inactive”.
Turning to `CC(C)(O)/C=C/C(=O)[C@](C)(O)[C@H]1[C@H](O)C[C@@]2(C)[C@@H]3CC=C4[C@@H](C=C(O)C(=O)C4(C)C)[C@]3(C)C(=O)C[C@]12C` [CUCURBITACIN I], the IC50 in the assay with MCF7 [1] (read-out: IC50) came out at 60.7 nM. Also, the inhibition result in [11], in assay [12], in assay [13], in assay [14], in [15] and in assay [16] was “inactive” in each case. For the same compound, in assay [17], the inhibition entry is “inactive”.
`CC(=O)O[C@@H]1C[C@H]2C(C)(C)C(=O)C=C[C@]2(C)[C@H]2CC[C@@]3(C)[C@H](c4ccoc4)OC(=O)[C@H]4O[C@]43[C@@]21C` [GEDUNIN]: in the assay with MCF7 [1] (read-out: IC50), the IC50 was found to be 10900 nM. Moreover, the result in the assay with MCF7 [18] and in the assay on MCF7 [19] was Active. Further, the inhibition result in [10] was “inactive”. Moreover, in [20], the inhibition result is “Active”.
For `COC1=C2C[C@@H](C)C[C@H](OC)[C@H](O)[C@@H](C)/C=C(\C)[C@H](OC(N)=O)[C@@H](OC)/C=C\C=C(/C)C(=O)NC(=CC1=O)C2=O` [GELDANAMYCIN], the IC50 with MCF7 [1] (read-out: IC50) came out at 42.7 nM. For the same compound, the outcome with MCF7 [18] and in the assay with MCF7 [19] was Active.
